Assay results reported in publication PMC8880714, “Antimicrobial effect and mechanism of bovine lactoferrin against the potato common scab pathogen Streptomyces scabiei” (PLoS ONE, 2022).
Like-named read-outs stand apart in the source and are kept apart here. Each block holds one compound with its values, some of them ahead of it. Where no end group is shown, it is not given here.

How the values were obtained:
Streptomyces scabiei S58 = test: microbe, parasite or virus in culture; assay type: cell-based
Protocol: S. scabiei S58, isolated from potatoes grown in Kagoshima, Japan, was used in this study. […] For antimicrobial assays, the spores of the isolate were incubated at 28 °C in tryptic soy broth (TSB) (Becton Dickinson, Sparks, USA). Escherichia coli strains JM109 and BL21(λDE3) were grown at 37 °C in Luria-Bertani broth supplemented with 100 μg/mL ampicillin for propagation.
A 12-well plate was used to assess the antimicrobial activity of LF, hydrolysate, LFcinB, and synthetic peptides. One milliliter of TSB containing each test substance was added to each well and then the spores of S. scabiei S58, prepared as described above, were added into each well at a final concentration of 2 × 10^5 spores/mL. The mixture was incubated at 28 °C for 72 h, and the absorbance was measured at 600 nm to monitor bacterial growth. To further confirm whether the antimicrobial activity is due to growth inhibition or bactericidal effect, 1 mL of TSB containing 2 ×10^3 spores and bLF (1 mg/mL) was incubated at 28 °C and directly cultured on STA after 5, 10, 15, 24, 48, and 72 h of incubation to count the emerging colonies. All assays were performed in duplicate and were repeated three times.

[1] = pH of the medium in which the substance was dissolved; assay type: physicochemical
Excerpt: On the contrary, in the assay of Trp alone at high concentrations, because Trp cannot bind to the cell surface by itself, only a few numbers could reach the membrane (Fig 8C). In summary, Trp must reach the cell membrane to exert its antimicrobial activity. We speculated that the change in the chemical structures and properties of Arg and Trp may affect their antimicrobial activity, that is, the ability to bind to the bacterial cell surface. Therefore, we used Arg and Trp derivatives, namely arginine hydrochloride, tryptophan methyl ester hydrochloride, and tryptophan ethyl ester hydrochloride, which are easily available. Intriguingly, arginine hydrochloride completely lost the antimicrobial activity against S. scabiei shown by Arg (Fig 7A and 7C). Sephai et al. (2017) reported that the antimicrobial activity of poly-arginine is influenced by pH; at mild acidic pH (5 and 6), its MIC values decreased. We measured the pH of the medium in which arginine or arginine hydrochloride was dissolved and found it to be 9.5 and 5.5, respectively. Streptomyces spp. can grow at pH values ranging from 4.0 to 11.5 [63]. Teichoic and lipoteichoic acids in gram-positive bacterial cell walls are esterified to D-Ala residues and at neutral or lower pH, the amino group of D-Ala (pKa 8.42) is protonated, conferring a neutral or positive charge to the cell walls. […]

[2] = spores 2 × 10^5/mL, TSB, 28 °C, 72 h, absorbance 600 nm
[3] = S. scabiei S58 spores 2 × 10^5/mL, TSB, 28 °C, 72 h, absorbance 600 nm, probit analysis, mean ± SD, n = 3, N/A = no antimicrobial activity, read-out: Antimicrobial activity (IC50)

Compound: Cl.N=C(N)NCCC[C@H](N)C(=O)O [Arginine hydrochloride]
Antimicrobial activity, in words (Streptomyces scabiei S58; [2]): complete loss of activity
pH of the medium in which the substance was dissolved [1]: 5.5

Compound: N=C(N)NCCC[C@H](N)C(=O)O [Arginine]
IC50 (Streptomyces scabiei S58; Streptomyces scabiei, S58, 72 h, read-out: Antimicrobial activity (IC50)): 14300 ± 1400 µM
Concentration necessary to completely inhibit the growth of S. scabiei (Streptomyces scabiei S58; [2]): 40 mM
pH of the medium in which the substance was dissolved [1]: 9.5

Compound: CC[C@H](C)[C@@H]1NC(=O)[C@H](CO)NC(=O)[C@@H]2CCCN2C(=O)[C@H](C)NC(=O)CNC(=O)[C@H](CC(C)C)NC(=O)[C@H](CCCCN)NC(=O)[C@H](CCCCN)NC(=O)[C@H](CCSC)NC(=O)[C@H](CCCNC(=N)N)NC(=O)[C@H](Cc2c[nH]c3ccccc23)NC(=O)[C@H](CCC(N)=O)NC(=O)[C@H](Cc2c[nH]c3ccccc23)NC(=O)[C@H](CCCNC(=N)N)NC(=O)[C@H](CCCNC(=N)N)NC(=O)[C@@H](NC(=O)[C@H](CCCCN)NC(=O)[C@@H](N)Cc2ccccc2)CSSC[C@@H](C(=O)N[C@H](C(=O)N[C@@H](CCCNC(=N)N)C(=O)N[C@@H](CCCNC(=N)N)C(=O)N[C@@H](C)C(=O)N[C@@H](Cc2ccccc2)C(=O)O)C(C)C)NC(=O)[C@H]([C@@H](C)O)NC1=O [Bovine lactoferricin (LFcinB)]
Concentration at which no growth of S. scabiei was observed (Streptomyces scabiei S58; [2]): 3.2 µM

IC50 (Streptomyces scabiei S58; [3]): 1303 ± 4 µM
Compound: CCOC(=O)[C@@H](N)Cc1c[nH]c2ccccc12.Cl [Tryptophan ethyl ester hydrochloride]
Antimicrobial activity, in words (Streptomyces scabiei S58; [2]): much higher activity than that of tryptophan

IC50 (Streptomyces scabiei S58; [3]): 2860 ± 326 µM
Compound: COC(=O)[C@@H](N)Cc1c[nH]c2ccccc12.Cl [Tryptophan methyl ester hydrochloride]
Antimicrobial activity, in words (Streptomyces scabiei S58; [2]): much higher activity than that of tryptophan

Compound: N[C@@H](Cc1c[nH]c2ccccc12)C(=O)O [Tryptophan]
inhibition at 40000 µM (Streptomyces scabiei S58; Streptomyces scabiei, S58, read-out: Inhibition of growth of S. scabiei): 40%

Compound: QQWWWQ [Synthetic peptide containing three Trp residues and no Arg residue]
Antimicrobial activity, in words (Streptomyces scabiei S58; [2]): complete loss of activity

Compound: RRRQRR [Synthetic peptide containing no Trp residue]
Antimicrobial activity, in words (Streptomyces scabiei S58; [2]): completely lost its activity

IC50 (Streptomyces scabiei S58; 72 h): 48 ± 9 µM
Compound: RRWQWR [RRWQWR]

IC50 (Streptomyces scabiei S58; 72 h): 27 ± 2 µM
Compound: RRWWWR [RRWWWR]
